Experimental data as given in patent US4749717A, “Dopamine-beta-hydroxylase inhibitors” (SmithKline Beckman Corporation, priority 1987, dated 1988).

Key:
[1] = biological target: T1, DBH (dopamine-β-hydroxylase) (Bos taurus, UniProt P15101); experiment: in vitro DBH inhibition (conversion of tyramine to octopamine; spectrophotometric absorbance at 330 nm); format: biochemical; details: concentration of compound at which DBH activity was halved
T1 sequence (P15101 1-610): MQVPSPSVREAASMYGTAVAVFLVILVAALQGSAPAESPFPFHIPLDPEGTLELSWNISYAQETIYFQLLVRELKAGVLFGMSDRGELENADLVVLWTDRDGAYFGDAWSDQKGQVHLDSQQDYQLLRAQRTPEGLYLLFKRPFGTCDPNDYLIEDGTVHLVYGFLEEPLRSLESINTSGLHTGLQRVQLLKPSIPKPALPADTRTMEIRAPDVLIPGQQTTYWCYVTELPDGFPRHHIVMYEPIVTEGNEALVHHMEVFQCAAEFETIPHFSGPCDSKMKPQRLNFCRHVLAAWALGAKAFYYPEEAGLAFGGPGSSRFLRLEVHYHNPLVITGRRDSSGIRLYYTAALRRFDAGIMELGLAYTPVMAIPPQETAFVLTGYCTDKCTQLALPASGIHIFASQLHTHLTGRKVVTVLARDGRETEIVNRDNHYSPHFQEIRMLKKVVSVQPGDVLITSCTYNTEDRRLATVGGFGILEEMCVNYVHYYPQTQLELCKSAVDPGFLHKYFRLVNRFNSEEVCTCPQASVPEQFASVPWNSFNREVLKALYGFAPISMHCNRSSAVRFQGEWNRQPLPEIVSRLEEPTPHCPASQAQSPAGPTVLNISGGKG
Method: Listed in Table I are the compounds of the invention that were tested for in vitro DBH inhibition by a standard procedure for assaying conversion of tyramine to octopamine in the presence of DBH. J. J. Pisano, et al., Biochim. Biophys. Acta, 43, 566-568 (1960). Octopamine was assayed following sodium periodate oxidation to p-hydroxybenzaldehyde by measuring spectrophotometric absorbance at 330 nm.

[2] = tested on: spontaneously hypertensive rats; experiment: mean arterial blood pressure in spontaneously hypertensive rats; format: in vivo, rat; details: 50 mg/kg intraperitoneally
Method: Further, spontaneously hypertensive rats were treated with a suspension or solution of 1-(2-thienylmethyl)imidazole-2-thiol at a dose of 50 mg/kg intraperitoneally, and mean arterial blood pressure was monitored for 260 minutes using indwelling cannulae in the tail arteries. […] The maximal blood pressure reduction was approximately 25 to 30 mmHg.

[3] = biological target: T2, DBH (dopamine-β-hydroxylase) (Homo sapiens, UniProt P09172); details: literature; cited from earlier work
T2 sequence (P09172 1-617): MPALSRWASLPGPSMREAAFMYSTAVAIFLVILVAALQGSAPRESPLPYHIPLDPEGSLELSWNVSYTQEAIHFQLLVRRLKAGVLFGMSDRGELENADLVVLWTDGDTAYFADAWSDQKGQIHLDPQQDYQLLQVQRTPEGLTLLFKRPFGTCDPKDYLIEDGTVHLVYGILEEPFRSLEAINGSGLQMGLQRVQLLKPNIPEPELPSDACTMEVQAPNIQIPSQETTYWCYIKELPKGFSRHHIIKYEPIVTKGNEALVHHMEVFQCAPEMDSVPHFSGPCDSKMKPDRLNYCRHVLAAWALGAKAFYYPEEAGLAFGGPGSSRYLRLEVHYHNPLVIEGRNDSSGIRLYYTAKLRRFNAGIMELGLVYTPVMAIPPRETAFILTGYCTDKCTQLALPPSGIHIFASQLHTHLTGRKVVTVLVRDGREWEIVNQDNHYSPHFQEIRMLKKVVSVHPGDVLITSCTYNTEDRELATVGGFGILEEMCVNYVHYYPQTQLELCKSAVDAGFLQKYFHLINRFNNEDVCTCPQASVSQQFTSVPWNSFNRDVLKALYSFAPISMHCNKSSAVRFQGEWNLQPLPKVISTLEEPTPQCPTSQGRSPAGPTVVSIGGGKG

[4] = Ehrreich et al.; cited from earlier work
[5] = Teresawa et al.; cited from earlier work

| Compound | DBH inhibition (in words) [3] | also measured |
| --- | --- | --- |
| Sc1nccn1Cc1cccs1 [1-(2-thienylmethyl)imidazole-2-thiol, 1-(2-Thienylmethyl)Imidazole-2-Thiol] | – | IC50 [1]: 13 µM; time after treatment to significant blood pressure reductions [2]: ≤ 60 min; maximal blood pressure reduction ([2]; mean arterial blood pressure, approximately): 25 to 30 mmHg; blood pressure reduction compared to vehicle-treated controls ([2]; monitored for 260 minutes): significant blood pressure reductions |
| Sc1nccn1Cc1ccsc1 [1-(3-thienylmethyl)imidazole-2-thiol, 1-(3-Thienylmethyl)imidazole-2-thiol] | – | IC50 [1]: 7.4 µM |
| NCC=Cc1cccs1 [3-(2-thienyl)allylamine] | potent, time-dependent DBH inhibitors | – |
| O=C(O)c1ccc(CCC(Br)CBr)cn1 (centres unmarked) [5-(3,4-dibromobutyl)picolinic acid] | DBH inhibitors | – |
| O=C(O)c1ccc(CCCCCl)cn1 [5-(4-chlorobutyl) picolinic acid] | inhibit DBH | – |
| CN(C)C(=S)SCc1ccc(C(=O)O)nc1 [5-(dimethyldithiocarbamoylmethyl)picolinic acid] | DBH inhibitors | – |
| NOCc1ccccc1 [Benzyloxyamine, benzyloxyamine] | apparently act as competitive inhibitors | – |
| CCCCc1ccc(C(N)=O)nc1 [Bupicomide, 5-(n-butyl)picolinamine] | DBH inhibitor | antihypertensive activity (in words) [4]: has antihypertensive activity |
| NNCc1ccccc1 [benzylhydrazine] | apparently act as competitive inhibitors | – |
| CCCCc1ccc(C(=O)O)nc1 [fusaric acid] | – | hepatotoxicity (in words) [5]: hepatotoxic |
